Measurements: patent US6149912A (priority 1998, dated 2000)
Where two headings read alike, the source gives them in different places.

Assays:
mice = conditions: cited from earlier work
[1] = in vivo; cited from earlier work
[2] = LD50 (acute toxicity) in mice; conditions: mouse, in vivo, 0.03-0.3 mg/kg vs LD50 42 mg/kg, read-out: effective dose relative to LD50 (times lower)
S. typhimurium SL1344 [3] = format: in vivo, Salmonella typhimurium (in CF-1 mice); conditions: for survival, illness, weight loss and infection after multiple treatment (in words): multiple i.p. treatment, 5 days after infection / 12 day observation; for animals protected against massive doses: single or multiple injections, 25 LD50 i.p.; for protective activity against bacterial infection (in words): glycoalkaloid vs aglycon, 8 LD50 i.p.
S. typhimurium = conditions: mouse, in vivo; cited from earlier work
S. typhimurium SL1344 [4] = test system: S. typhimurium SL1344; parameters: species or system Salmonella typhimurium (in CF-1 mice); conditions: mouse, in vivo
[5] = 1 μg (or 0.5 μg + 0.5 μg) i.p. 3 times every other day before i.p. challenge (3.5 × 10^3 CFU, 25 LD50), 5 days post challenge
[6] = 1 μg (or 0.5 μg + 0.5 μg) i.p. 3 times every other day before i.p. challenge (25 LD50), 5 days post challenge, p < 0.001 vs control
[7] = single 1 μg dose five days prior to challenge with 25 LD50
[8] = solanine 1 μg, solanidine or diosgenin 0.5 μg/mouse, inguinal pocket, 5 days before i.p. challenge (1.2 × 10^3 CFU, 8 LD50), 5 days post challenge
[9] = solanine 1 μg, solanidine or diosgenin 0.5 μg/mouse, inguinal pocket, 5 days before i.p. challenge (8 LD50), 5 days post challenge

| SMILES | LD50 (mice) [mg/kg] | poisoning [1] | Survival rate (S. typhimurium SL1344 [3]; [5]) | Liver Culture (S. typhimurium SL1344 [3]; [6]) [CFU/500 mg × 10^6] | Spleen Culture (S. typhimurium SL1344 [3]; [6]) [CFU/100 mg × 10^6] | survival, illness, weight loss and infection after multiple treatment (in words) (S. typhimurium SL1344 [3]; 25 LD50) | Survival rate (S. typhimurium SL1344 [3]; [7]) | animals protected against massive doses (S. typhimurium SL1344 [3]) | protective activity against bacterial infection (in words) (S. typhimurium SL1344 [3]) | Survival rate (S. typhimurium SL1344 [3]; [8]) | Liver Culture (S. typhimurium SL1344 [3]; [9]) [CFU/500 mg × 10^6] | Spleen Culture (S. typhimurium SL1344 [3]; [9]) [CFU/100 mg × 10^6] | also measured |
| --- | --- | --- | --- | --- | --- | --- | --- | --- | --- | --- | --- | --- | --- |
| C[C@H]1CC[C@@H]2[C@@H](C)[C@H]3[C@H](C[C@H]4[C@@H]5CC=C6C[C@@H](O[C@@H]7O[C@H](CO)[C@@H](O[C@@H]8O[C@@H](C)[C@H](O)[C@@H](O)[C@H]8O)[C@H](O)[C@H]7O[C@@H]7O[C@@H](C)[C@H](O)[C@@H](O)[C@H]7O)CC[C@]6(C)[C@H]5CC[C@]34C)N2C1 [chaconine] | 42 | can cause poisoning | 8/8 | 0.12 ± 0.09 | 0.03 ± 0.01 | no signs of illness or weight loss during a 12 day observation period | ~75% | sixty to a hundred percent of the animals were protected | – | – | – | – | LD50 (mice; listed as Chaconine): 40 to 50 mg/kg; therapeutic index (LD50 / effective dose) [2]: 100 to 1000 |
| CC(=O)N[C@H]1C(O)O[C@H](CO)[C@@H](O)[C@@H]1O[C@H](C)C(=O)N[C@@H](C)C(=O)N[C@H](CCC(=O)O)C(N)=O (some centres unmarked) [muramyldipeptide] | – | – | – | – | – | – | – | – | – | – | – | – | mice protected (S. typhimurium): 50% |
| C[C@H]1CC[C@@H]2[C@@H](C)[C@H]3[C@H](C[C@H]4[C@@H]5CC=C6C[C@@H](O)CC[C@]6(C)[C@H]5CC[C@]34C)N2C1 [solanidine, reference compound] | – | – | – | – | – | – | – | – | Neither solanidine nor diosgenin possessed any protective activity | 3/10 | 5.3 ± 2.4 | 1.7 ± 0.6 | – |
| C[C@H]1CC[C@@H]2[C@@H](C)[C@H]3[C@H](C[C@H]4[C@@H]5CC=C6C[C@@H](O[C@@H]7O[C@H](CO)[C@H](O)[C@H](O[C@@H]8O[C@H](CO)[C@@H](O)[C@H](O)[C@H]8O)[C@H]7O[C@@H]7O[C@@H](C)[C@H](O)[C@@H](O)[C@H]7O)CC[C@]6(C)[C@H]5CC[C@]34C)N2C1 [solanine] | 42 | can cause poisoning | 8/8 | 0.08 ± 0.07 | 0.08 ± 0.02 | no signs of illness or weight loss during a 12 day observation period | approximately 40% | sixty to a hundred percent of the animals were protected | only solanine was able to effectively protect mice against the bacterial infection | 9/10 | 0.8 ± 0.5 | 0.8 ± 0.5 | Fecal Culture (S. typhimurium SL1344 [4]): 20.0 ± 3.5; Liver Culture (S. typhimurium SL1344 [4]): 0.3 ± 0.1; Spleen Culture (S. typhimurium SL1344 [4]): 2.0 ± 0.2; Survival rate (S. typhimurium SL1344 [4]): 5/5; LD50 (mice; listed as Solanine): 40 to 50 mg/kg; animals with enhanced resistance to infection (FIG. 1) (S. typhimurium SL1344 [3]; single 0.1, 1.0 or 10.0 μg, challenge (25 LD50) 1, 7 or 14 days later): 40-70%; duration of enhanced host resistance (S. typhimurium SL1344 [3]; single treatment, 1.0 and 10.0 μg, 25 LD50): at least 2 weeks |
| C[C@@H]1CC[C@@]2(OC1)O[C@H]1C[C@H]3[C@@H]4CC=C5C[C@@H](O)CC[C@]5(C)[C@H]4CC[C@]3(C)[C@H]1[C@@H]2C [diosgenin, reference compound] | – | – | – | – | – | – | – | – | Neither solanidine nor diosgenin possessed any protective activity | 4/10 | 8.5 ± 3.3 | 4.8 ± 1.8 | – |
